Measurements reported in patent US20050031537A1, “Multifunctional COX-2 inhibitors” (priority 2002, published 2005).

Tests used:
[1] = Patient with colon cancer (Example IV); format: in vivo, human; conditions: person, 800 mg bid
Description: A person presents with symptoms of constipation and rectal bleeding and is diagnosed with colon cancer.

[2] = system: HER-2/neu; assay: Western blotting for expression of HER-2/neu (test (b)); format: cell-based, human; conditions: positive in 184B5/HER, BT474 and SKBR3 cells; 24 h; Western blot
Description: We turn now to the criterion (b), that is at least 50% decrease in level of or 50% downregulation of expression of Class I family of receptors tyrosine kinase. The Class I family of receptors tyrosine kinase is described in Reese, M. D., et al Stem Cells 15, pages 1-8 (1997), the whole of which in incorporated herein by reference. Members of the family include HER-2/neu, HER-3, HER-4 and epidermal growth factor receptor (EGFR) and are single-chain membrane spanning proteins which have significant homology to one another including about 80% amino acid identity in the tyrosine kinase domain.
HER-2/neu (erbB-2) gene product is a 185-kDA transmembrane receptor tyrosine kinase that is described in some detail in said Reese et al publication and overexpression thereof has been associated with tumor growth in several kinds of cancer.
To evaluate the expression of Class I family of receptors tyrosine kinase (EGFR, HER-2/neu), Western blotting can be performed. Antibodies for EGFR and HER-2/neu can be obtained from Santa Cruz Biotechnology, Inc.
Expression of EGFR (performed in 184B5, 184B5/HER, 1483, LNCaP, HeLa and CaSki cells)and HER-2/neu (performed in 184B5/HER, SKBR3 and BT474 cells) was assessed in cells after treatment with test compound for 24 hours. 5×10^6 cells were used for the treatment. Western blotting technique was used to assess the expression levels in cells treated with the test compound compared to vehicle alone. Western blotting was carried out as follows:
Cell lysates were prepared by treating cells with lysis buffer (150 mM NaCl, 100 mM Tris (pH 8.0), 1% Tween 20, 50 mM diethyldithiocarbamate, 1 mM EDTA, 1 mM phenylmethylsulfonyl fluoride, 10 μg/ml aprotinin, 10 μg/ml trypsin inhibitor and 10 μg/ml leupeptin). Lysates were sonicated for 20 s on ice and centrifuged at 10,000×g for 10 min to sediment the particulate material. The protein concentration of the supernatant was measured by the method of Lowry, O. H., et al., J. Biol. Chem. 193, 265-275 (195 1). SDS/PAGE was performed under reducing conditions on 10% polyacrylamide gels as described by Laemmli, U.K., Nature (Lond.) 227, 680-685 (1970). The resolved proteins were transferred onto nitrocellulose sheets as detailed by Towbin, H. et al., Proc. Natl. Acad. Sci. USA 76, 4350-4354 (1979). The nitrocellulose membrane was then incubated with anti-EGFR antiserum or anti-HER-2/neu antiserum. Secondary antibody to IgG conjugated to horseradish peroxidase was used. The various antisera were purchased from Santa Cruz Biotechnology, Inc., CA. The blots were probed with the Renaissance Western blot detection system according to the manufacturer's instructions (PerkinElmer Life Sciences, Boston, Mass.).

[3] = system: Nrf-2; assay: Western and Northern blotting for expression of Nrf-2 (test (g)); format: cell-based, human; conditions: positive in 184B5, 184B5/HER, HCA7, HCT116, SKBR3, BT474 and CaSki cells
Method: We turn now to criterion (g), i.e. at least 50% increase in expression of Nrf-2. […] 13, 2001).
Western blotting and Northern blotting techniques were used to evaluate the expression of Nrf-2. The expression of Nrf-2 was evaluated in HCA7, HCT116, SKBR3, CaSki, 184B5/HER, 184B5 and BT474 cells. 5×10^6cells were used to treat either vehicle alone or the test compound. The Western blotting analysis was performed as described above except anti-Nrf-2 antibody was used to probe the blot. The antibody was obtained from Santa Cruz Biotechnology, Inc. CA. Northern blotting for Nrf-2 was performed as described above and cDNA for Nrf-2 as described in Gong, P., et al., J.Biol Chem 20; 276:27018-27025 (2001) was used as a probe.

[4] = system: cyclin D1; assay: Western blotting for expression of cyclin D1 (test (c)); format: cell-based, human; conditions: for Test (c) at least 50% downregulation of expression of cyclin D1: positive in 184B5, 184B5/HER cells, 24 h, Western blot
Method: Cyclin D1 is a protein that is important in regulating cell proliferation and is described in Ortega, S., et al, Biochimica et Biophysica Acta 1602, 73-87, (2002), the whole of which is incorporated by reference. […] Effects on expression of cyclin D1 was investigated in 184B5, 184B5/HER, HCA7, HCT116, SKBR3 and BT474 cells. The expression was assessed in cells after treatment with test compound or vehicle using 5×10^4 cells for 24 hours. Western blotting technique was used as follows to assess the expression levels of cyclin D1 in cells treated with the test compound and compared to levels in cells treated with vehicle alone. Cell lysates were prepared by treating cells with lysis buffer as described above. […] The resolved proteins were transferred onto nitrocellulose sheets. The nitrocellulose membrane was then incubated with anti-cyclin D1 antiserum. Secondary antibody to IgG conjugated to horseradish peroxidase was used. The various antisera were purchased from Santa Cruz Biotechnology, Inc., CA. The blots were probed with the Renaissance Western blot detection system according to the manufacturer's instructions (PerkinElmer Life Sciences, Boston, Mass.).

[5] = Patient with Alzheimer's disease (Example V); format: in vivo, human; conditions: person two, 200 mg bid
Method: person two presents with symptoms of memory loss and is diagnosed with Alzheimer's disease. The patient is given and maintained on a 200 mg bid dose of indomethacin heptyl ester. The progression of the symptoms stops.

[6] = Patient with oral premalignant lesion (Example VII); format: in vivo, human; conditions: person, lozenges 100 mg twice a day for six months
Description: A person presents with a white patch on their tongue and is diagnosed as having an oral premalignant lesion.

[7] = Patient with cervical intraepithelial neoplasia, HPV 16 detected (Example VIII); format: in vivo, human; conditions: person, 0.5% in a cream on sponge/cervical cap, six months
Description: A person presents to their gynecologist for evaluation. […] On biopsy, the patient is found to have cervical intraepithelial neoplasia. HPV 16 is detected. […] The SC-236 is discontinued with no recurrence of cervical intraepithelial neoplasia.

Row | Compound | rate of progression of the colon cancer [1] | Test (b) HER-2/neu: at least 50% decrease in level of or 50% downregulation of expression [2] | Test (g) at least 50% increase in expression of Nrf-2 [3] | Test (c) at least 50% downregulation of expression of cyclin D1 [4] | progression of the symptoms (memory loss, Alzheimer's disease) [5] | decrease in level of cyclin D1 ([4]; 184B5 cells, 24 hours, Western blotting) | outcome of oral premalignant lesion [6] | repeat biopsy finding of cervical intraepithelial neoplasia [7]
1 | Cc1ccc(-c2cc(C(F)(F)F)nn2-c2ccc(S(N)(=O)=O)cc2)cc1 [Celecoxib] | decreases | + (A plus sign in the table indicates a positive result, that is meeting the test for each cell line as indicated above as providing a positive result) | + (A plus sign in the table indicates a positive result, that is meeting the test for each cell line as indicated above as providing a positive result) | + (A plus sign in the table indicates a positive result, that is meeting the test for each cell line as indicated above as providing a positive result) | – | – | – | –
2 | CCCCCCCOC(=O)Cc1c(C)n(C(=O)c2ccc(Cl)cc2)c2ccc(OC)cc12 [Indomethacin Analog 1, indomethacin heptyl ester] | – | + (A plus sign in the table indicates a positive result, that is meeting the test for each cell line as indicated above as providing a positive result) | + (A plus sign in the table indicates a positive result, that is meeting the test for each cell line as indicated above as providing a positive result) | – | stops | – | – | –
3 | COc1ccc(OC(=O)Cc2c(C)n(C(=O)c3ccc(Cl)cc3)c3ccc(OC)cc23)cc1 [Indomethacin Analog 3, 1-(p-chlorobenzoyl)-5-methoxy-2-methyl-1H-indole-3-acetic acid, 4-methoxyphenyl ester] | – | + (A plus sign in the table indicates a positive result, that is meeting the test for each cell line as indicated above as providing a positive result) | + (A plus sign in the table indicates a positive result, that is meeting the test for each cell line as indicated above as providing a positive result) | – | – | – | – | –
4 | NS(=O)(=O)c1ccc(-n2nc(C(F)(F)F)cc2-c2ccc(Cl)cc2)cc1 [SC-236, 4-[5-(4-chlorophenyl)-3-(trifluoromethyl)-1H-pyrazol-1-yl]benzenesulfonamide] | decreases | + (A plus sign in the table indicates a positive result, that is meeting the test for each cell line as indicated above as providing a positive result) | + (A plus sign in the table indicates a positive result, that is meeting the test for each cell line as indicated above as providing a positive result) | + (A plus sign in the table indicates a positive result, that is meeting the test for each cell line as indicated above as providing a positive result) | – | more than 50% | resolution of the premalignant lesion | no further evidence of cervical intraepithelial neoplasia
5 | CS(=O)(=O)c1ccc(-n2nc(C(F)(F)F)cc2-c2ccc(F)cc2)cc1 [SC-58125, 4-[5-(4-fluorophenyl)-3-(trifluoromethyl)-1H-pyrazol-1-yl]benzenemethylsulfone] | – | + (A plus sign in the table indicates a positive result, that is meeting the test for each cell line as indicated above as providing a positive result) | + (A plus sign in the table indicates a positive result, that is meeting the test for each cell line as indicated above as providing a positive result) | + (A plus sign in the table indicates a positive result, that is meeting the test for each cell line as indicated above as providing a positive result) | – | – | – | –
